The source of these data is paper PMC9774438, “Effects of Synthetic Short Cationic Antimicrobial Peptides on the Catalytic Activity of Myeloperoxidase, Reducing Its Oxidative Capacity” (Antioxidants, 2022).

Entries after “also recorded” stand apart in the source; their conditions may differ. Like-named read-outs stand apart in the source and are kept apart here.

One data set deals with MPO active site. As to conditions: computational docking; ref [31]; cited from earlier work. From the text:
To react with MPO, a peptide residue has to closely approach to the active site. The active site heme group of MPO is located in a crevice (~15 Å in depth) with a channel (~10 Å in diameter) which opens into the distal cavity. Only H2O2 and small anions have ready access to the iron atom. Other compounds that are oxidized by MPO via the peroxidase cycle bind in the binding site at the entrance to the distal cavity. […] Despite concerns rais ...

The next data set has as its system MPO. Conditions: ref [31]; cited from earlier work. From the text:
The positively charged character of arginine played a key role, since substitu ...

The target in data set [1] is T1, myeloperoxidase (MPO) (Homo sapiens, UniProt P05164).
T1 construct: Native myeloperoxidase (MPO) was obtained from human leukocyte extract by successive chromatography on heparin-Sepharose and phenyl-agarose; from tissue; host or cells: human leukocyte extract
T1 sequence (P05164 279-745 limits assumed): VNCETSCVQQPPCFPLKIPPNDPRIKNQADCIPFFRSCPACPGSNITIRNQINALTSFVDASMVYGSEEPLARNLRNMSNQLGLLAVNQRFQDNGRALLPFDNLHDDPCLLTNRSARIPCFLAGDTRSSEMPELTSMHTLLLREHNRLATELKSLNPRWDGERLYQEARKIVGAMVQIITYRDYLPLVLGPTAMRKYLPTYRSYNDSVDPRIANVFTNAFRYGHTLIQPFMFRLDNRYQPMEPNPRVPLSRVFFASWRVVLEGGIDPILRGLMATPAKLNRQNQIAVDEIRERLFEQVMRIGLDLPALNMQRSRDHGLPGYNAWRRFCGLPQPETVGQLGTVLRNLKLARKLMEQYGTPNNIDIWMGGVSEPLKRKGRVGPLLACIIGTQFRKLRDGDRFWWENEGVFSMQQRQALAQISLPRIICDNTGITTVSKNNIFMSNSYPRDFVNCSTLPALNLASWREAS
T1 sequence (P05164 165-273 limits assumed): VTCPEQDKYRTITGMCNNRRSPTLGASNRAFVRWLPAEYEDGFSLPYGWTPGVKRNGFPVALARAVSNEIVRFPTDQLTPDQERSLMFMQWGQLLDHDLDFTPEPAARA
Description: MPO chlorinating activity (Celestine Blue B assay). The data set is classed as biochemical. Conditions: 0.008–8 μM peptide, 0.8 nM MPO heme, 200 μM CB, 150 mM NaCl, 50 μM H2O2, 50 mM Na-acetate pH 5.5. The protocol: MPO chlorinating activity was evaluated fluorometrically using Celestine Blue B (CB) which was oxidized to fluorescent glycol (λex = 487 nm, λem = 578 nm) by taurine N-chloramine produced in the reaction of taurine with HOCl generated by MPO [39]. The assay was performed in 96-plate format. MPO was preincubated with peptides for 5 min in a volume of 100 μL, with the concentrations being: MPO, 1.6 nM heme and peptide, 16 nM–16 μM. Then, 100 μL aliquots of CB-containing mix (CB, 400 µM; H2O2, 100 µM; taurine, 4 mM; KI, 10 µM; NaCl, 300 mM; 50 mM Na-acetate buffer, pH 5.5) were added to MPO/peptide and to 100 μL of HOCl standards (0–150 μM). The fluorescence measurement was made with a CLARIOstar multimodal plate reader (BMG Labtech, Ortenberg, Germany) at 15 min after the reaction started. Fluorescence intensity detected for HOCl standards of HOCl was used for calculating the chlorinating activity as mole of HOCl per mole of MPO heme per second. To determine the type of CAMP-induced inhibition, KM and Vmax were obtained by varying substrates of MPO: NaCl in a final concentration from 25 to 300 mM, or H2O2 in a final concentration from 5 to 80 µM.
(§1) The Hannes-Wolf plots were made as ([Substrate]/V = f([Substrate]). KM was equal in magnitude to the intercept made on the abscissa axis by the approximating straight line; Vmax was calculated as a reciprocal value of the straight-line slope. The inhibition constant (Ki) for noncompetitive inhibition was calculated as follows: Ki = [I]/((Vmax − Vmax’)/Vmax’); Ki for competitive inhibition was calculated as follows: Ki = [I]/((KM’ − KM)/KM); Ki for mixed inhibition was calculated as follows: Ki = [I]/(((KM’ − KM)/KM)^2 + ((Vmax − Vmax’)/Vmax’))^2)^0.5; and Ki for uncompetitive inhibition was calculated as follows: Ki = [I]/(((KM − KM’)/KM’)^2 + ((Vmax – Vmax’)/Vmax’))^2)^0.5, where [I]—concentration of inhibitor (CAMP), KM—Michaelis constant without inhibitor, Vmax—maximal rate without inhibitor, KM’—Michaelis constant in the presence of inhibitor, Vmax’—maximal rate in the presence of inhibitor.
Chlorinating activity is a distinctive feature of MPO as compared with other peroxidases and it is an important property, enabling MPO to combat microbes. We tested whether the inhibitory effects of pept_1545 and Hm-AMP8 on peroxidase activity extend to MPO chlorinating activity. Chlorinating activity was measured using a fluorometric CB-based assay. To determine the concentration dependence of the effect of CAMPs on MPO chlorinating activity, the 0.008–8 μM concentration range (corresponding to 10–10,000 peptide molecules per heme) was used.

The target in data set [2] is T1, myeloperoxidase (MPO). Description: MPO peroxidase activity (Amplex Red assay). The data set is classed as biochemical. As to conditions: 0.8–50 μM peptide, 8 nM MPO heme, 50 μM Amplex Red, 25 μM H2O2, 50 mM K-phosphate pH 7.4. The protocol: MPO peroxidase activity was evaluated fluorometrically using Amplex Red^TM reagent which was oxidized by MPO to the fluorescent resorufin (λex = 530 nm, λem = 590 nm). The assay was performed in 96-plate format. The final reaction mixture in 50 mM K-phosphate buffer (pH 7.4) was as follows: MPO, 8 nM heme; peptide, […]; H2O2, 25 μM; Amplex Red reagent, 50 μM. MPO was preincubated with peptides for 5 min in a volume of 100 μl. Then, Amplex Red was added, and the enzymatic reaction was initiated by adding H2O2 (a final probe volume of 200 μL per well). The fluorescence measurement was made with a CLARIOstar multimodal plate reader (BMG Labtech, Ortenberg, Germany) at 5 min after the beginning of the reaction. To determine the type of CAMP-induced inhibition, KM and Vmax were obtained by varying substrates of MPO: Amplex Red in a final concentration from 1 to 62.5 μM, or H2O2 in a final concentration from 0.625 to 20 μM.
as §1
From the experiments with varying concentrations of H2O2 (0.01–200 μM) and Amplex Red (6.25–100 μM), the optimal concentrations of 25 μM H2O2 and 50 μM Amplex Red were chosen for further work. The 0.8–50 μM concentration range (corresponding to 100–6250 peptide molecules per heme) was used to determine the concentration dependence of the effect of CAMPs on peroxidase activity of MPO.

The target in data set [3] is T1, myeloperoxidase (MPO). As to the kind of experiment: MPO heme absorbance spectra (Compound II formation and decay, MPO turnover). The data set is classed as biochemical. As to conditions: 2 μM MPO heme, 100 μM H2O2, 10 mM Na-phosphate pH 7.4; all concentrations. As to the method: Native myeloperoxidase (MPO) was obtained from human leukocyte extract by successive chromatography on heparin-Sepharose and phenyl-agarose followed by gel-filtration on a Sephacryl S-200 HR, as previously described. The Reinheit Zahl value (A430 nm/A280 nm) for the purified protein was 0.85. The MPO concentration was determined as the heme concentration measured spectrophotometrically at 430 nm with a molar extinction coefficient of 91,000 M^−1 cm^−1 [35].
Spectra of MPO were recorded on a Cary 50 Bio UV-Vis spectrophotometer (Varian, Mulgrave, Australia). Experiments were performed with Eppendorf UVette plastic UV/Vis cuvettes (Hamburg, Germany). An MPO concentration was 2 μM heme. MPO was mixed with CAMP in 10 mM Na-phosphate buffer (pH 7.4) supplemented with 0.2 mM DTPA. H2O2 was added as a microvolume of concentrated solution (100 μM final).
To elucidate the influence of CAMPs on MPO catalytic activity, we analyzed absorbance spectral changes for MPO activated by H2O2 in the presence of peptides. The spectra were obtained with 2 μM MPO heme and 100 μM H2O2 in 10 mM Na-phosphate buffer, pH 7.4. All reactions in these and further experiments were performed in buffers supplemented with 0.2 mM diethylenetriaminepentaacetic acid (DTPA) to sequester free transition metal ions to prevent tyrosine and cysteine autooxidation.
Figure 2 Time courses of spectral absorbance changes at 430 nm (indicative of MPO ground state) and 455 nm (indicative of Compound II) in the absence and presence of cationic antimicrobial peptides (CAMPs) in the system MPO/H2O2. The name of CAMP is given in parentheses after the panel designation (A–D). H2O2 (100 µM) was added to MPO (2 µM heme) or MPO preincubated with peptides at different peptide/heme molar ratios for 5 min in 10 mM Na-phosphate buffer, pH 7.4. Spectra were taken before and 0.25 min, 5 min, 10 min, and so on after adding H2O2. The initial absorbance values (before H2O2 addition) are shown as a red square marker. […]

In the next data set the test system is erythrocytes. As to conditions: PBS, 1 h, 37 °C, Triton X-100 = 100%.

Description for erythrocytes: Comparative evaluation of hemolytic activity of the cationic antimicrobial peptides (CAMPs) Hm-
AMP8, pept_1545, Hm-AMP1, and Hm-AMP2 using a hemolysis assay measuring hemoglobin released from
damaged cells. In each group of bars, the final peptide concentration from left to right is 12.5 μM, 25 μM, 50
μM, and 100 μM. For melittin, the left bar – 0.5 μM, and the right bar – 1 μM. A working erythrocyte suspension
(in PBS) was prepared so that its ten -fold dilution gave an optical density of 0.4 at 800 nm (about 30 × 10^6 cells/mL).
Erythrocytes (125 μL) were added to the same volume of PBS containing the peptide. Cells with PBS served as
negative control; cells with Triton X-100 served as positive control wh ich was set to 100%. After 1-h incubation
(with slight shaking) at 37 °C, the samples were centrifuged at 1000 × g for 10 min , the supernatant was
transferred to the wells of a microplate, and the absorbance of hemoglobin was measured by a Multiskan Ascent
plate reader (Thermo Electron Corporation, Vantaa, Finland), with a test wavelength of 414 nm and a
background wavelength of 690 nm. The hemolysis percentage was calculated using the following equation:
Hemolysis (%) = {(sample absorbance – negative control) / (positive control – negative control)} × 100. Data
shown are mean ± SD from three independent experiments using blood from three healthy volunteers, with […]

Regarding “GRRRRSVQWCA [antimicrobial peptide …, human lactoferrin-derived]”, the “binding to MPO active site (docking)” value in the data set on MPO active site was “binding of the peptide GRRRRSVQWCA to the edge of and within the cleft of the active site”. Further, the “inhibition of MPO” value in the data set with MPO was “inhibiting MPO activity”.
Regarding RLKRFKRVALRREKTARNFRSIVS [Hm-AMP1], the “effect on MPO chlorinating activity” value on myeloperoxidase (MPO) [1] is given as “no significant effect”. Moreover, the “effect on MPO peroxidase activity” value at myeloperoxidase (MPO) [2] is recorded as “no inhibition; also recorded: No effect”. Besides, at myeloperoxidase (MPO) [3], the “effect on H2O2-induced formation and decay of MPO Compound II / MPO turnover (summary)” value is reported as “no significant effect on MPO cycling”.
As for melittin, the Hemolysis entry with erythrocytes (0.5 M (so in the source), three independent experiments) is listed as “about 40%”; with erythrocytes (1 M (so in the source)), “complete hemolysis”.
